Patent US20260355192A1, “PROPHYLACTIC OR THERAPEUTIC AGENT FOR PERIOSTIN-MEDIATED DISEASE AND PRURITUS ASSOCIATED THEREWITH” (SAGA UNIVERSITY, priority 2022, published 2026)

B1: nemolizumab: anti-IL-31 receptor antibody (antibody, chains of the INN, looked up)
heavy: QVQLVQSGAEVKKPGASVKVSCKASGYTFTGYIMNWVRQAPGQGLEWMGLINPYNGGTDYNPQFQDRVTITADKSTSTAYMELSSLRSEDTAVYYCARDGYDDGPYTLETWGQGTLVTVSSASTKGPSVFPLAPSSKSTSGGTAALGCLVKDYFPEPVTVSWNSGALTSGVHTFPAVLQSSGLYSLSSVVTVPSSNFGTQTYTCNVDHKPSNTKVDKTVERKSCVECPPCPAPPVAGPSVFLFPPKPKDTLMISRTPEVTCVVVDVSQEDPEVQFNWYVDGVEVHNAKTKPREEQFNSTFRVVSVLTVVHQDWLNGKEYKCKVSNKGLPAPIEKTISKTKGQPREPQVYTLPPSQEEMTKNQVSLTCLVKGFYPSDIAVEWESNGQPENNYKTTPPMLDSDGSFFLYSKLTVDKSRWQEGNVFSCSVMHEALHNHYTQKSLSLSP
light: DIQMTQSPSSLSASVGDRVTITCQASEDIYSFVAWYQQKPGKAPKLLIYNAQTEAQGVPSRFSGSGSGTDFTLTISSLQPEDFATYYCQHHYDSPLTFGGGTKVEIKRTVAAPSVFIFPPSDEQLKSGTASVVCLLNNFYPREAKVQWKVDNALQSGNSQESVTEQDSKDSTYSLSSTLTLSKADYEKHKVYACEVTHQGLSSPVTKSFNRGEC

Tests used:
[1] = tested on: scratching behaviors in FADS mice; test: Scratching behaviors in FADS mice upon single systemic administration of αvβ3 integrin inhibitors; format: in vivo, mouse (FADS, Nestin-cre/Ikk2ff); details: for % Change from baseline in the number of scratchings (mean ± standard error): 53.7 μmol/kg i.p., single, 60 minutes after administration vs before administration; for grade of effect on % change from the baseline in the number of scratchings: single i.p., 53.7 μmol/kg (GLPG-0187 5.37 μmol/kg), paired t-test
Source text: Nestin-cre transgenic mice were crossed with IKK2^ff mice to prepare Nestin-cre/Ikk2^ff mice specifically lacking IKK2 in their facial skin fibroblasts (Nunomura S, et al. J Invest Dermatol. 139:1274-1283, 2019). These mice inevitably develop atopic dermatitis-like rash limited to the face and intense itchy symptoms, and were therefore designated as Facial Atopic Dermatitis with Scratching (FADS) mice. […] For evaluation of the prophylactic or therapeutic agent of the present invention, FADS mice at 3 to 4 weeks of age or older were used because of showing spontaneous scratching behaviors. It should be noted that in this Example section, the above compound of formula (I) (more particularly “CP4715”) was used as the prophylactic or therapeutic agent of the present invention.
FADS mice were acclimated for 20 minutes to the environment of a recording cage, and then recorded with a video camera. The recorded videos were replayed, and scratching behaviors were counted assuming that hind paw scratching to the face and the subsequent movement of toe licking or paw lowering to the ground were regarded as one cycle of scratching behavior.
Prior to the administration of the above αvβ3 integrin inhibitors, FADS mice were recorded for 60 minutes with a video camera and then allowed to rest for 15 minutes. The compounds except for GLPG-0187 were each dissolved at 89.5 mM in a diluent (physiological saline containing 50% DMSO and 89.5 mM HCL), from which an amount corresponding to 53.7 μmol/kg per mouse was then taken and diluted with 0.3 mL of PBS, and then administered intraperitoneally. […] Mice administered with 0.3 mL of PBS containing an equal amount of the diluent as calculated based on the body weight were used as a control group.
The mice were recorded for 60 minutes with a video camera immediately after administration of the above αvβ3 integrin inhibitors. The number of scratchings before administration was used as a baseline, and % change from the baseline after administration was calculated for each compound. For statistical analysis, paired t-test was used. A P-value of less than 0.05 was considered to be statistically significant. The effect of an inhibitor whose mean change from the baseline was −65% or more at a P-value of less than 0.01 was expressed as “++”; the effect of an inhibitor whose mean change from the baseline was −60% or less at a P-value of less than 0.05 was expressed as “+”; and the effect of an inhibitor whose mean change from the baseline was −60% or less at a P-value of 0.05 or higher was expressed as “−.”

[2] = molecular target: T1, integrin αvβ3 (Homo sapiens, UniProt P05106+P06756); test: Inhibition of periostin-dependent adhesion of SW480 cells expressing integrin αvβ3; format: cell-based; details: immobilized recombinant human periostin, FIG. 6; for IC50: SW480 cells expressing human integrin β3, compounds at 0.001-1 μM, read-out: 50% inhibition concentration (IC50 value) for cell adhesion inhibitory activity; for cell adhesion inhibitory effect (in words): SW480 cells expressing integrin αvβ3
T1 construct: SW480 cells, a human colon cancer cell line not expressing integrin β3; expressed in transfected cells; host or cells: SW480 cells (human colon cancer) stably expressing human integrin β3
T1 sequence (P06756 31-889 limits assumed): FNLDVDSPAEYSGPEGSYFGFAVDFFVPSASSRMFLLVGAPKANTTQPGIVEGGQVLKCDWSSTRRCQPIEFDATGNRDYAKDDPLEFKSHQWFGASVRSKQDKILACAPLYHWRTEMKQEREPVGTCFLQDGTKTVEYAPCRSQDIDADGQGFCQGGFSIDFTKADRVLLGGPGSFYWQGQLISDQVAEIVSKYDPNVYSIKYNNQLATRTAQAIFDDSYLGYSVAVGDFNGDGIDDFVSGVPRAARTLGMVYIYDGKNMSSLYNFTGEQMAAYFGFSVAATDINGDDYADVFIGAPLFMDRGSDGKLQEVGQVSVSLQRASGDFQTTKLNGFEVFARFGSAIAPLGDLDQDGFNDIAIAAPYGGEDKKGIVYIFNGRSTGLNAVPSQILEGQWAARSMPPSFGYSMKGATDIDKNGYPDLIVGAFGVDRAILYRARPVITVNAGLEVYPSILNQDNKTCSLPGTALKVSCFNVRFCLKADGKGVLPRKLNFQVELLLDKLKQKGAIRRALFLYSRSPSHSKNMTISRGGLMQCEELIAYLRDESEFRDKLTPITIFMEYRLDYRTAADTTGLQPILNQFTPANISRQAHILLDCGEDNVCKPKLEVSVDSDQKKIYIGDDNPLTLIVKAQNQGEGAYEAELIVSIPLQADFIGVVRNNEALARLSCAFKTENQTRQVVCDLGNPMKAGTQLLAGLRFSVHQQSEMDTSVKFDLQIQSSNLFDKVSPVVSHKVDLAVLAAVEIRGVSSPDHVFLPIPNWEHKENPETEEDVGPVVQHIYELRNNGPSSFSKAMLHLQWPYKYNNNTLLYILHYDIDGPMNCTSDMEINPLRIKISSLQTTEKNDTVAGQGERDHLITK
T1 sequence (P06756 891-1048 partner limits assumed): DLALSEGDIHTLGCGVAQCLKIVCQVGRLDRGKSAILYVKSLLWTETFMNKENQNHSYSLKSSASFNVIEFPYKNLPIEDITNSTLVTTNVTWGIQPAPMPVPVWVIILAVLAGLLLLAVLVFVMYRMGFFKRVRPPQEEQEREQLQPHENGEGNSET
T1 sequence (P05106 27-788): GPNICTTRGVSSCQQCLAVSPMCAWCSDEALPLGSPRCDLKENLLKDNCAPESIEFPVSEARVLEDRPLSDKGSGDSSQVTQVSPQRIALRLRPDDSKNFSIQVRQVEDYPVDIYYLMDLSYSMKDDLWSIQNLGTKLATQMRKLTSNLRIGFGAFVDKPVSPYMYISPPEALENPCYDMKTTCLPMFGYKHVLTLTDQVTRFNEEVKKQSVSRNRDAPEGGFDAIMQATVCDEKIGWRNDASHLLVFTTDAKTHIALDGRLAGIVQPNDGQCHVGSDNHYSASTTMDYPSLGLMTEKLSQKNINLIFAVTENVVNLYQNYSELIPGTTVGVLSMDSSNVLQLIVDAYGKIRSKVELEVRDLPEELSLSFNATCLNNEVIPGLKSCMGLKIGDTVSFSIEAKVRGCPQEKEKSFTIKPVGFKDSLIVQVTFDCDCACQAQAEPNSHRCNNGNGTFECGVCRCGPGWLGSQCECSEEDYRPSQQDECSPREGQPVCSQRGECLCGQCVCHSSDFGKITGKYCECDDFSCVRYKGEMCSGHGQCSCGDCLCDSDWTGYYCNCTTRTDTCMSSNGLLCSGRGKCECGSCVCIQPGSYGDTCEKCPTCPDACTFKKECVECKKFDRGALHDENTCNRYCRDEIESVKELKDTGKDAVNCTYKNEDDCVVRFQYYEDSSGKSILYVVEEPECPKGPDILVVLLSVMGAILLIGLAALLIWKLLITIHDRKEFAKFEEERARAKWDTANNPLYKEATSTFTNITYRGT
Method: For use in cell adhesion experiments, SW480 cells, a human colon cancer cell line not expressing integrin β3, were genetically engineered to stably express human integrin β3 (Nanri Y, et al. Am J Respir Cell Mol Biol. 62:204-216, 2020). The compounds shown in Table 1 were examined for their inhibitory activity against adhesion between integrin αvβ3 and periostin according to the following procedures. First, a 96-well plate was treated with 10 μg/mL recombinant human periostin (Bio-Techne) at 4 °C for 16 hours to immobilize periostin. The SW480 cells expressing integrin αvβ3 (5×10^4 cells) were reacted at room temperature for 15 minutes with the above compounds at 0.001, 0.01, 0.1 and 1 μM in serum-free DMEM (Dulbecco's Modified Eagle Medium) containing 0.5% bovine serum albumin and 0.25 mM MnCl2. A group receiving no compound was used as a control. The reacted cell suspensions were added to separate wells of the above human periostin-immobilized plate, and the plate was centrifuged at 10×g for 5 minutes and then cultured at 37 °C for 60 minutes. Then, after the adhered cells were washed to remove unbound cells, the adhered cells were fixed with 1% formaldehyde and stained with 0.5% crystal violet. The fixed and stained cells were solubilized with 0.2% Triton X-100 and measured for absorbance at 595 nm. The absorbance of the control (i.e., the group receiving no compound) was set to 0% inhibition. […] Cell adhesion in this test system is periostin-dependent, and a compound inhibiting this cell adhesion can be referred to as a periostin receptor antagonist.

[3] = tested on: integrin αvβ3; details: cited from earlier work
[4] = tested on: IL-31 receptor; details: Kabashima K, et al. N Engl J Med. 383:141-150, 2020; cited from earlier work

Molecule	% Change from baseline in the number of scratchings (mean ± standard error) [1]	grade of effect on % change from the baseline in the number of scratchings [1]	IC50 [2]	cell adhesion inhibitory effect (in words) [2]	inhibition of binding between integrin αvβ3 and vitronectin [3]	pruritus [4]	skin inflammation [4]
CC(C)COC(=O)N[C@@H](CCC(=O)N1CCN(c2cccc(NC3=NCC(F)CN3)c2)CC1)C(=O)O (stereo partly drawn) [BS-1417, (2S)-5-(4-(3-((5-fluoro-1,4,5,6-tetrahydropyrimidin-2-yl)amino)phenyl)piperazin-1-yl)-2-((isobutoxycarbonyl)amino)-5-oxopentanoic acid]	−43.3 ± 11.9%	+ (mean change from the baseline was −60% or less at a P-value of less than 0.05)	≥ 1000 nM	–	–	–	–
O=C(NC[C@H](NS(=O)(=O)c1ccccc1)C(=O)O)c1ccc(N2CCC(NC3=NCCCN3)CC2)c(F)c1 [CP derivative 2, (S)-3-(3-fluoro-4-(4-((1,4,5,6-tetrahydropyrimidin-2-yl)amino)piperidin-1-yl)benzamido)-2-(phenylsulfonamido)propanoic acid]	−30.2 ± 18.6%	− (mean change from the baseline was −60% or less at a P-value of 0.05 or higher)	≤ 1 nM	high	–	–	–
O=C(NC[C@H](NS(=O)(=O)c1ccccc1)C(=O)O)c1ccc(N2CCC[C@H](NC3=NCCCN3)C2)cc1F [CP derivative 7, (S)-3-(2-fluoro-4-((S)-3-((1,4,5,6-tetrahydropyrimidin-2-yl)amino)piperidin-1-yl)benzamido)-2-(phenylsulfonamido)propanoic acid]	−52.0 ± 26.6%	− (mean change from the baseline was −60% or less at a P-value of 0.05 or higher)	≤ 1 nM	high	–	–	–
O=C(NC[C@H](NS(=O)(=O)c1cccs1)C(=O)O)c1ccc(N2CCC[C@H](NC3=NCCCN3)C2)cc1 [CP derivative 9, (S)-3-(4-((S)-3-((1,4,5,6-tetrahydropyrimidin-2-yl)amino)piperidin-1-yl)benzamido)-2-(thiophene-2-sulfonamido)propanoic acid]	−24.5 ± 19.9%	− (mean change from the baseline was −60% or less at a P-value of 0.05 or higher)	≤ 1 nM	high	–	–	–
CC(C)[C@H]1C(=O)N[C@@H](CCCNC(=N)N)C(=O)NCC(=O)N[C@@H](CC(=O)O)C(=O)N[C@H](Cc2ccccc2)C(=O)N1C [Cilengitide, 2-((2S,5R,8S,11S)-5-benzyl-11-(3-guanidinopropyl)-8-isopropyl-7-methyl-3,6,9,12,15-pentaoxo-1,4,7,10,13-pentaazacyclopentadecan-2-yl)acetic acid]	−31.7 ± 17.8%	–	–	–	–	–	–
O=C(O)C[C@H]1Cc2ccc(OCCCNc3ccccn3)cc2CN(CC(F)(F)F)C1=O [SB-267268 enantiomer, (R)-2-(3-oxo-8-(3-(pyridin-2-ylamino)propoxy)-2-(2,2,2-trifluoroethyl)-2,3,4,5-tetrahydro-1H-benzo[c]azepin-4-yl)acetic acid]	+45.5 ± 28.8%	–	≥ 1000 nM	–	–	–	–
O=C(O)C[C@@H]1Cc2ccc(OCCCNc3ccccn3)cc2CN(CC(F)(F)F)C1=O [SB-267268, (S)-2-(3-oxo-8-(3-(pyridin-2-ylamino)propoxy)-2-(2,2,2-trifluoroethyl)-2,3,4,5-tetrahydro-1H-benzo[c]azepin-4-yl)acetic acid]	−5.5 ± 13.4%	− (mean change from the baseline was −60% or less at a P-value of 0.05 or higher)	≤ 20 nM	moderate	–	–	–
CNc1cccc(CCOc2ccc3c(c2)CN(CC(F)(F)F)C(=O)[C@H](CC(=O)O)C3)n1 [SB-273005, (S)-2-(8-(2-(6-(methylamino)pyridin-2-yl)ethoxy)-3-oxo-2-(2,2,2-trifluoroethyl)-2,3,4,5-tetrahydro-1H-benzo[c]azepin-4-yl)acetic acid]	−33.0 ± 11.6%	+ (mean change from the baseline was −60% or less at a P-value of less than 0.05)	≤ 20 nM	moderate	–	–	–
N=C(N)Nc1cccc(C(=O)NCC(=O)NC(CC(=O)O)c2cc(Cl)cc(Cl)c2)c1 (centres unmarked) [SC-68448, 3-(3,5-Dichlorophenyl)-3-(2-(3-guanidinobenzamido)acetamido)propanoic acid]	−83.8 ± 7.7%	++ (mean change from the baseline was −65% or more at a P-value of less than 0.01)	–	moderate	inhibit binding	–	–
Cc1cc(C)c(S(=O)(=O)N[C@@H](CNC(=O)c2ccc3c(cnn3CCCNc3ncc[nH]3)c2)C(=O)O)c(C)c1 [SM-256, (S)-3-(1-(3-((1H-imidazol-2-yl)amino)propyl)-1H-indazole-5-carboxamido)-2-((2,4,6-trimethylphenyl)sulfonamido)propanoic acid]	−22.5 ± 19.6%	–	≤ 100 nM	low	–	–	–
B1	–	–	–	–	–	improve pruritus	improving effect on skin inflammation
